This is an account of results in patent US20020031520A1, “PREVENTION AND TREATMENT OF HEPATOCELLULAR CANCER” (priority 1997, published 2002).

Where no end group is shown, it is not given here.

For series [1], the target named is T1, HLA A2.1 (Homo sapiens, UniProt P04439, D140Y/D185E/D98H/E176V/E277Q/G131W/G231S/I119V/I121R/I166T/I218V/L300P/L318F/N151K/N90K/P208A/P217A/Q86G/Q94H/R138H/R169H/T345S). Put plainly: EBV lymphoblastoid cell off-kinetics assay. As to conditions: for Time of Peptide Stability on Lymphoblastoid Cells: pulsed at 200 μM for 1 hour, followed 0, 2, 4 and 6 hours at 37° C., (n.s.) = not stable. The class given is binding. The source says: The cells were washed at the end of each time point and stained for HLA A2 with the BB7.2 antibody.

Series [2] concerns the target T1, HLA A2.1. Put plainly: T2 cell stabilization assay. In kind it is binding. As to conditions: peptide tested 0.1 μM-100 μM; flow cytometry with BB7.2; (n.s.) = not stable.
The next series has as its system AFP+/HLA A2.1+ HepG2. Put plainly: 4 hour 51Cr-release assay of peptide-generated CTL against HepG2. In kind it is cell-based, human. Here is the method: IL-2 was added twice weekly at 10 units/ml. […] Non-specific NK killing was assessed with the NK sensitive target K562. The CTL were also tested against the HLA A2.1-positive, AFP-positive human hepatocellular carcinoma cell line, HepG2. Referring now to Table III, there are shown the cytotoxicity results of tests for the twelve AFP peptide sequences used to generate CTL from normal donors that gave positive peptide cytotoxicity results. […] Further, new AFP49 peptide-generated CTL cultures were made using two different, normal HLA A2.1 donors. Additional targets were used to confirm that the cytotoxicity observed using AFP49 was AFP antigen-specific and class I restricted. Referring now to FIG. 1, there is shown representative data of these tests. First, to confirm that the observed cytotoxicity was class I restricted, anti-β2 microglobulin antibody was used to block the CTL-T cell receptor interaction on HepG2 cells. […] Next, to eliminate non-specific NK/LAK killing, a 40-fold excess of unlabeled (cold) K562 cells was added. […] Also, an AFP+, HLA A2.1-negative hepatocellular carcinoma cell line, Hep3B, that is, a class I-mismatched hepatocellular carcinoma cell line, was also used as a target. […] This small amount of observed Hep3B lysis was eliminated by adding an excess of cold K562 cells, in contrast to the retention of specific killing of HepG2 when cold K562 cells were added.

Series [3] deals with M202 (HLA A2.1+/AFP-) melanoma cells transduced with AdVhAFP. Put plainly: chromium release assay of peptide-specific CTL against M202 cells transduced with AdVhAFP or control AdVRR5. The class given is cell-based, human. As to conditions: FIG. 2.
Series [4] relates to T2 cells pulsed with the specific peptide. As to conditions: FIG. 2; T2 pulsed with specific peptide versus a different HLA A2.1 binding peptide.

As to “ILLWAARYD [AFP18, residues 178-186 of hAFP]”, the “Time of Peptide Stability on Lymphoblastoid Cells” value (“Time of Peptide Stability” below) in the series with HLA A2.1 [1] was greater than 6 h. For the same sequence, in the series with HLA A2.1 [2], the “Minimum Concentration of Peptide to Stabilize A2 on T2 cells” value (shortened to “Minimum Concentration of Peptide”) is “(n.s.)”.
Regarding FMNKFIYEI [AFP5], the “AFP+/HLA A2.1+ HepG2 Cytotoxicity” value was determined as 4% with AFP+/HLA A2.1+ HepG2 (E:T 5:1) and 7% in the series on AFP+/HLA A2.1+ HepG2 (E:T 20:1).
GVALQTMKQ [AFP49]: the “AFP+/HLA A2.1+ HepG2 Cytotoxicity” value in the series on AFP+/HLA A2.1+ HepG2 (E:T 10:1) is 17%; in the series with AFP+/HLA A2.1+ HepG2 (E:T 50:1), 45%.
For the sequence TMKQEFLINL [AFP22], the “AFP+/HLA A2.1+ HepG2 Cytotoxicity” value in the series on AFP+/HLA A2.1+ HepG2 (E:T 5:1) turned out to be 9%; in the series on AFP+/HLA A2.1+ HepG2 (E:T 20:1), 24%.
Turning to MKWVESIFL [AFP38], the “AFP+/HLA A2.1+ HepG2 Cytotoxicity” value in the series with AFP+/HLA A2.1+ HepG2 (E:T 10:1) is recorded as 0%; in the series on AFP+/HLA A2.1+ HepG2 (E:T 50:1), 12%.
On to KLVLDVAHV [AFP4], for which the “AFP+/HLA A2.1+ HepG2 Cytotoxicity” value in the series on AFP+/HLA A2.1+ HepG2 (E:T 5:1) turned out to be 4%; in the series with AFP+/HLA A2.1+ HepG2 (E:T 20:1), 7%.
As to “FVQEATYKF [AFP8, residues 54-62 of hAFP]”, the “Time of Peptide Stability” value with HLA A2.1 [1] is greater than 2 h. Besides, the “Minimum Concentration of Peptide” value with HLA A2.1 [2] is recorded as “(n.s.)”.
As to “TLSNKITEC [AFP60, residues 294-302 of hAFP]”, in the series with HLA A2.1 [1], the “Time of Peptide Stability” value is listed as “(n.s.)”. Moreover, in the series with HLA A2.1 [2], the “Minimum Concentration of Peptide” value came to 50 µM.
For the sequence NLVKQKPQI [AFP23], the “AFP+/HLA A2.1+ HepG2 Cytotoxicity” value in the series with AFP+/HLA A2.1+ HepG2 (E:T 5:1) turned out to be 2%; with AFP+/HLA A2.1+ HepG2 (E:T 20:1), 15%.
Turning to “GVALQTMKL (listed as Homo sapiens) [AFP49L9, single amino acid substitution in position 9 of AFP49]”, in series [3], the “killing of M202/AdVhAFP compared with AFP49 peptide-specific CTL cultures” value is recorded as “even more effectively” and the “killing of M202/AdVhAFP versus M202/RR5” value is “significantly more killing of M202 cells transduced with AdVhAFP”.
Regarding “KELRESSLL [AFP16, residues 211-219 of hAFP]”, in the series with HLA A2.1 [1], the “Time of Peptide Stability” value came out at 2 h. Also, the “Minimum Concentration of Peptide” value in the series with HLA A2.1 [2] is given as “(n.s.)”.
Turning to FQAITVTKL [AFP45], the “AFP+/HLA A2.1+ HepG2 Cytotoxicity” value worked out at 9% in the series with AFP+/HLA A2.1+ HepG2 (E:T 10:1) and 27% in the series with AFP+/HLA A2.1+ HepG2 (E:T 50:1).
The matching figures for LLNFTESRT [AFP7]: 6% and 15%.
Regarding “QLTSSELMAI [AFP14, residues 441-450 of hAFP]”, in the series with HLA A2.1 [1], the “off-kinetics (in words)” value is “slow off-kinetics” and the “Time of Peptide Stability” value was greater than 2 h. Moreover, the “Minimum Concentration of Peptide” value with HLA A2.1 [2] was determined as 50.0 µM.
For the sequence “YIQESQALA [AFP13, residues 404-412 of hAFP]”, the “Time of Peptide Stability” value with HLA A2.1 [1] was greater than 2 h. Moreover, the “Minimum Concentration of Peptide” value with HLA A2.1 [2] turned out to be 10.0 µM.
As to “SLVVDETYV [AFP17, residues 514-522 of hAFP]”, the “Time of Peptide Stability” value with HLA A2.1 [1] is recorded as “(n.s.)”. Moreover, the “Minimum Concentration of Peptide” value with HLA A2.1 [2] amounted to 1.0 µM.
For the sequence “GVALQTMKV (listed as Homo sapiens) [AFP49V9]”, in series [3], the “killing of M202/AdVhAFP compared with AFP49 peptide-specific CTL cultures” value is given as “even more effectively” and the “killing of M202/AdVhAFP versus M202/RR5” value was “significantly more killing of M202 cells transduced with AdVhAFP”. Besides, the “peptide specificity of CTL culture” value in series [4] is “showed peptide specificity”.
For KQEFLINLV [AFP37], the entries for the “AFP+/HLA A2.1+ HepG2 Cytotoxicity” value with AFP+/HLA A2.1+ HepG2 (E:T 5:1) and with AFP+/HLA A2.1+ HepG2 (E:T 25:1) were 0% and 2%, respectively.
For “YICSQQDTL [AFP28, residues 287-295 of hAFP]”, the “Time of Peptide Stability” value in the series with HLA A2.1 [1] stood at 2 h. Moreover, the “Minimum Concentration of Peptide” value with HLA A2.1 [2] is 50 µM.
The matching figures for “FQKLGEYYL [AFP34, residues 419-427 of hAFP]”: “(n.s.)” and 100 µM.
Consider “KMVKDALTAI [AFP64, residues 65-74 of hAFP]”, for which the “Time of Peptide Stability” value with HLA A2.1 [1] is on record as “(n.s.)”. Also, the “Minimum Concentration of Peptide” value with HLA A2.1 [2] was determined as 100 µM.
With PVNPGVGQC [AFP39], the “AFP+/HLA A2.1+ HepG2 Cytotoxicity” value is given as 12% with AFP+/HLA A2.1+ HepG2 (E:T 10:1) and 29% in the series on AFP+/HLA A2.1+ HepG2 (E:T 50:1).
